# Data reported in ChEMBL document CHEMBL6153056 (Eur J Med Chem, 2025).
# The source made the active and inactive calls. The calls are words filed in the database; no cut-off is given here.
# Experiments:
# DU-145 [1] = test: Antiproliferative activity against human DU-145 cells incubated for 72 hrs by MTT assay; assay type: functional, cell-based; settings: DU-145, 72 h
# CDK9/cyclin T1 = CDK9/cyclin T1 (Homo sapiens, UniProt P50750); test: Inhibition of CDK9/cyclin T1 (unknown origin) pre-incubated for 20 min followed by 32P-ATP addition and measured after 2 hrs; assay type: protein-complex assay
# [2] = Microsomal stability in human liver microsomes assessed as residual activity at 5 uM incubated for 15 min in presence of NADPH generating system by HPLC-MS analysis; assay type: ADME, Microsome; settings: read-out: Stability
# [3] = Stability of the compound in stimulated gastric fluid pH 1.2 at 5 uM incubated for 30 mins by HPLC-MS analysis; assay type: physicochemical; settings: simulated gastric fluid, read-out: Stability
# [4] = Stability in mouse serum at 5 uM measured after 360 mins by HPLC analysis; assay type: ADME, cell-free; settings: read-out: Stability
# [5] = Apparent permeability of compound across apical to basolateral side in human Caco-2 cells at 10 uM incubated for 2 hrs; assay type: ADME, cell-based
# [6] = Drug uptake in human DU-145 cells assessed as increase in green fluorescence in cytoplasm at 1 uM incubated for 2 hrs by live-cell confocal laser scanning microscopy based analysis; assay type: ADME; settings: du-145, 2 h
# [7] = Drug uptake in human DU-145 cells assessed as increase in green fluorescence in nucleus at 1 uM incubated for 2 hrs by live-cell confocal laser scanning microscopy based analysis; assay type: ADME; settings: du-145, 2 h
# LNCaP = test: Antiproliferative activity against human LNCaP cells incubated for 72 hrs by MTT assay; assay type: functional, cell-based
# CWR22R = test: Antiproliferative activity against human 22Rv1 cells incubated for 72 hrs by MTT assay; assay type: functional, cell-based; settings: 22Rv1, 72 h
# PC-3 = test: Antiproliferative activity against human PC-3 cells incubated for 72 hrs by MTT assay; assay type: functional, cell-based; settings: PC-3, 72 h
# VCaP = test: Antiproliferative activity against human VCaP cells incubated for 72 hrs by MTT assay; assay type: functional, cell-based
# T47D = test: Antiproliferative activity against human T47D cells incubated for 72 hrs by MTT assay; assay type: functional, cell-based
# MCF7 = test: Antiproliferative activity against human MCF7 cells incubated for 72 hrs by MTT assay; assay type: functional, cell-based; settings: MCF7, 72 h
# [8] = Half life in BALB/c mouse at 10 mg/kg, ip measured upto 24 hrs by LC-MS/MS analysis; assay type: ADME, organism-based; settings: in vivo
# [9] = Cmax in BALB/c mouse at 10 mg/kg, ip measured upto 24 hrs by LC-MS/MS analysis; assay type: ADME, organism-based; settings: in vivo
# [10] = Tmax in BALB/c mouse at 10 mg/kg, ip measured upto 24 hrs by LC-MS/MS analysis; assay type: ADME, organism-based; settings: in vivo
# [11] = Half life in BALB/c mouse at 2 mg/kg, iv measured upto 24 hrs by LC-MS/MS analysis; assay type: ADME, organism-based; settings: in vivo
# [12] = Half life in BALB/c mouse at 10 mg/kg, po measured upto 24 hrs by LC-MS/MS analysis; assay type: ADME, organism-based; settings: in vivo
# [13] = Cmax in BALB/c mouse at 10 mg/kg, po measured upto 24 hrs by LC-MS/MS analysis; assay type: ADME, organism-based; settings: in vivo
# [14] = Tmax in BALB/c mouse at 10 mg/kg, po measured upto 24 hrs by LC-MS/MS analysis; assay type: ADME, organism-based; settings: in vivo
# DU-145 [15] = test: Antitumor activity against human DU-145 cells xenografted in BALB/c mouse model assessed as reduction in tumor volume at 5 mg/kg, ip measured every 12 hrs for 16 days; assay type: functional, organism-based; settings: time 16.0 day
# DU-145 [16] = test: Antitumor activity against human DU-145 cells xenografted in BALB/c mouse model assessed as reduction in tumor volume at 10 mg/kg, ip measured every 12 hrs for 16 days; assay type: functional, organism-based; settings: time 16.0 day
# [17] = Toxicity in BALB/c mouse xenografted with human DU-145 cells assessed as effect on body weight at 5 mg/kg, ip measured every 12 hrs for 16 days; assay type: organism-based; settings: in vivo, 384 h, time 16 day
# [18] = Toxicity in BALB/c mouse xenografted with human DU-145 cells assessed as effect on body weight at 10 mg/kg, ip measured every 12 hrs for 16 days; assay type: organism-based; settings: in vivo, 384 h, time 16 day
# [19] = Toxicity in BALB/c mouse assessed as change in alanine transferase (ALT) level in blood at 5 mg/kg, ip measured every 12 hrs for 16 days by biochemical automatic analyzer; assay type: organism-based; settings: in vivo, 384 h, time 16 day
# [20] = Toxicity in BALB/c mouse assessed as change in aspartate transaminase (AST) level in blood at 5 mg/kg, ip measure every 12 hrs for 16 days by biochemical automatic analyzer; assay type: organism-based; settings: in vivo, 384 h, time 16 day
# [21] = Toxicity in BALB/c mouse assessed as change in blood urea nitrogen level in blood at 5 mg/kg, ip measured every 12 hrs for 16 days by biochemical automatic analyzer; assay type: organism-based; settings: in vivo, 384 h, time 16 day
# [22] = Toxicity in BALB/c mouse assessed as change in creatinine level in blood at 5 mg/kg, ip measured every 12 hrs for 16 days by biochemical automatic analyzer; assay type: organism-based; settings: in vivo, 384 h, time 16 day
# [23] = Toxicity in BALB/c mouse assessed as change in alanine transferase (ALT) level in blood at 10 mg/kg, ip measured every 12 hrs for 16 days by biochemical automatic analyzer; assay type: organism-based; settings: in vivo, 384 h, time 16 day
# [24] = Toxicity in BALB/c mouse assessed as change in aspartate transaminase (AST) level in blood at 10 mg/kg, ip measure every 12 hrs for 16 days by biochemical automatic analyzer; assay type: organism-based; settings: in vivo, 384 h, time 16 day
# [25] = Toxicity in BALB/c mouse assessed as change in blood urea nitrogen level in blood at 10 mg/kg, ip measured every 12 hrs for 16 days by biochemical automatic analyzer; assay type: organism-based; settings: in vivo, 384 h, time 16 day
# [26] = Toxicity in BALB/c mouse assessed as change in creatinine level in blood at 10 mg/kg, ip measured every 12 hrs for 16 days by biochemical automatic analyzer; assay type: organism-based; settings: in vivo, 384 h, time 16 day
# DU-145 [27] = test: Upregulation of CDK9 expression in human DU-145 cells by Western blot analysis; assay type: functional, cell-based
# Sequence of CDK9/cyclin T1 (O60563 whole entry): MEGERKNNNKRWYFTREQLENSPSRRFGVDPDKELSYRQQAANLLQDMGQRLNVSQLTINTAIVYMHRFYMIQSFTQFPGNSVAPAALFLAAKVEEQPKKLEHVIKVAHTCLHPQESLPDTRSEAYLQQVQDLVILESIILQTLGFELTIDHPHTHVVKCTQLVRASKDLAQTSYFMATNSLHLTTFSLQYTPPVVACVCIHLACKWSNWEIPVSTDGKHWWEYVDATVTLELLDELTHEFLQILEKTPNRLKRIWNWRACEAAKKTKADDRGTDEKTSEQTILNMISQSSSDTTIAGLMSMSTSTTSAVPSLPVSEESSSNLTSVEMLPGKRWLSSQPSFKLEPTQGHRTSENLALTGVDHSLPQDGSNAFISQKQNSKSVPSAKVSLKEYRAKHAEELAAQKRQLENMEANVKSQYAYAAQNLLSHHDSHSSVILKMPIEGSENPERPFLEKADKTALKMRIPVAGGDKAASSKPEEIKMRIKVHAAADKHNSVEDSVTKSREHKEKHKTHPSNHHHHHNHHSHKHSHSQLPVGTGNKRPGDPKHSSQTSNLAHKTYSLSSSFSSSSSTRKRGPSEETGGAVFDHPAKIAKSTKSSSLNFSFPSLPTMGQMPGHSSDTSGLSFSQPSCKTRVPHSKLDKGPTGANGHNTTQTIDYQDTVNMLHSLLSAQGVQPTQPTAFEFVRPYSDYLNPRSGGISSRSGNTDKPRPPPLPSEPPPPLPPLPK
# Sequence of CDK9/cyclin T1 (P50750 whole entry): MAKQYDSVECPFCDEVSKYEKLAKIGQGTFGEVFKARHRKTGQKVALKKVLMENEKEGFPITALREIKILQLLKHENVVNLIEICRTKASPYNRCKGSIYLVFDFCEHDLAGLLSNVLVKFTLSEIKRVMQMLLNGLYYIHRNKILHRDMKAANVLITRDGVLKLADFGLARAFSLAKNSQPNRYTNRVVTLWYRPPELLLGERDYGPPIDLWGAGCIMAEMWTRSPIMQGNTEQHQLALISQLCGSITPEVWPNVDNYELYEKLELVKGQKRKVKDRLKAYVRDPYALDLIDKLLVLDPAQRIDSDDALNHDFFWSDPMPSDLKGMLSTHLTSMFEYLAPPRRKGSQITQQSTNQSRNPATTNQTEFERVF
compound,measurement,setting,value
Nc1n[nH]c(N)c1/N=N/c1ccc(O)cc1,IC50,DU-145 [1],33.1 µM
CC(=O)N[C@H](CC(C)C)C(=O)N[C@@H](C)C(=O)N[C@@H](CC(C)C)C(=O)N[C@@H](CCC(N)=O)C(=O)N[C@H](C(=O)N[C@H](CC(C)C)C(=O)NCC(=O)N[C@@H](Cc1ccccc1)C(=O)N[C@H](CCC(N)=O)C(=O)N[C@@H](CC(C)C)C(=O)N[C@H](C(N)=O)C(C)C)[C@@H](C)O,IC50,CDK9/cyclin T1,0.0175 µM
same,IC50,DU-145 [1],1.67 µM
CC(=O)N[C@H](CC(N)=O)C(=O)N[C@H](CCC(N)=O)C(=O)N[C@@H](CC(C)C)C(=O)NCC(=O)N[C@@H](Cc1ccccc1)C(=O)N[C@H](CC(C)C)C(=O)N[C@@H](CC(C)C)C(=O)N[C@@H](C)C(=O)N[C@H](C(=O)N[C@@H](CCC(N)=O)C(=O)N[C@H](C(N)=O)[C@@H](C)O)[C@@H](C)O,IC50,CDK9/cyclin T1,> 0.05 µM
same,IC50,DU-145 [1],> 50 µM
CC(=O)N[C@H](CC(N)=O)C(=O)N[C@@H](C)C(=O)N[C@@H](CC(C)C)C(=O)N[C@@H](CCC(N)=O)C(=O)N[C@H](C(=O)N[C@H](CC(C)C)C(=O)NCC(=O)N[C@@H](Cc1ccccc1)C(=O)N[C@H](CCC(N)=O)C(=O)N[C@@H](CC(C)C)C(=O)N[C@H](C(N)=O)[C@@H](C)O)[C@@H](C)O,IC50,CDK9/cyclin T1,0.00416 µM
same,"remaining at 0.25 h, 5 µM",[2],98.2%
same,"remaining at 0.5 h, 5 µM",[3],96.7%
same,"remaining at 6 h, 5 µM",[4],87%
same,"Papp A→B at 2 h, 10 µM",[5],298 nm/s
same,Drug uptake,[6],Active
same,Drug uptake,[7],Active
same,IC50,DU-145 [1],0.35 µM
same,IC50,LNCaP,0.41 µM
same,IC50,CWR22R,0.95 µM
same,IC50,PC-3,0.72 µM
same,IC50,VCaP,0.81 µM
same,IC50,T47D,0.46 µM
same,IC50,MCF7,0.59 µM
same,half-life,[8],4.62 h
same,Cmax,[9],2.69 µg/mL
same,Tmax,[10],0.49 h
same,half-life,[11],5.13 h
same,half-life,[12],4.87 h
same,Cmax,[13],3.21 µg/mL
same,Tmax,[14],0.41 h
same,Activity,DU-145 [15],Active
same,Activity,DU-145 [16],Active; Compound Showed More Effect
same,Activity,[17],Toxic
same,Activity,[18],Toxic
same,Activity,[19],Toxic
same,Activity,[20],Toxic
same,Activity,[21],Toxic
same,Activity,[22],Toxic
same,Activity,[23],Toxic
same,Activity,[24],Toxic
same,Activity,[25],Toxic
same,Activity,[26],Toxic
same,Activity,DU-145 [27],Active
CC(=O)N[C@H](CC(N)=O)C(=O)N[C@@H](C)C(=O)N[C@@H](CC(C)C)C(=O)N[C@@H](CCC(N)=O)C(=O)N[C@H](C(=O)N[C@H](CC(C)C)C(=O)NCC(=O)N[C@@H](Cc1ccccc1)C(=O)N[C@H](C)C(=O)N[C@@H](CC(C)C)C(=O)N[C@H](C(N)=O)[C@@H](C)O)[C@@H](C)O,IC50,CDK9/cyclin T1,0.0368 µM
same,IC50,DU-145 [1],4.05 µM
CC(=O)N[C@H](CC(C)C)C(=O)N[C@@H](C)C(=O)N[C@@H](CC(C)C)C(=O)N[C@@H](CCC(N)=O)C(=O)N[C@H](C(=O)N[C@H](CC(C)C)C(=O)NCC(=O)N[C@@H](Cc1ccccc1)C(=O)N[C@H](CCC(N)=O)C(=O)N[C@@H](CC(C)C)C(=O)N[C@H](C(N)=O)[C@@H](C)O)[C@@H](C)O,IC50,CDK9/cyclin T1,0.0105 µM
same,"remaining at 0.25 h, 5 µM",[2],95.6%
same,"remaining at 0.5 h, 5 µM",[3],94.2%
same,"Papp A→B at 2 h, 10 µM",[5],268 nm/s
same,IC50,DU-145 [1],0.82 µM
same,Activity,DU-145 [27],Active
CC(=O)N[C@@H](CC(N)=O)C(=O)N[C@@H](C)C(=O)N[C@@H](CC(C)C)C(=O)N[C@@H](CCC(N)=O)C(=O)N[C@H](C(=O)N[C@H](CC(C)C)C(=O)NCC(=O)N[C@@H](Cc1ccccc1)C(=O)N[C@H](CCC(N)=O)C(=O)N[C@@H](CC(C)C)C(=O)N[C@H](C(N)=O)[C@@H](C)O)[C@@H](C)O,IC50,CDK9/cyclin T1,0.0874 µM
same,IC50,DU-145 [1],9.03 µM
CC(=O)N[C@H](CC(N)=O)C(=O)N[C@@H](C)C(=O)N[C@H](C(=O)N[C@@H](CCC(N)=O)C(=O)N[C@H](C(=O)N[C@H](CC(C)C)C(=O)NCC(=O)N[C@@H](Cc1ccccc1)C(=O)N[C@H](CCC(N)=O)C(=O)N[C@@H](CC(C)C)C(=O)N[C@H](C(N)=O)[C@@H](C)O)[C@@H](C)O)C(C)C,IC50,CDK9/cyclin T1,0.0239 µM
same,IC50,DU-145 [1],2.52 µM
CC(=O)N[C@H](C)C(=O)N[C@@H](C)C(=O)N[C@@H](CC(C)C)C(=O)N[C@@H](C)C(=O)N[C@H](C(=O)N[C@H](CC(C)C)C(=O)NCC(=O)N[C@@H](Cc1ccccc1)C(=O)N[C@H](C)C(=O)N[C@@H](CC(C)C)C(=O)N[C@@H](C)C(N)=O)[C@@H](C)O,IC50,CDK9/cyclin T1,> 0.05 µM
same,IC50,DU-145 [1],> 50 µM
